According to US11717476B2, “Moringa peregrina seed extract rich in 2,5-diformylfuran, process for obtaining same and use thereof in cosmetic compositions” (priority 2020, dated 2023):

Key:
telomerase = experiment: Telomerase activity in adult keratinocytes in monolayer culture (PCR-ELISA kit); format: cell-based, human; settings: 100 ng/ml; 24 hours
Protocol: Protocol: Human keratinocytes were obtained from a donor. To perform the experiments, the keratinocytes were used at a low passage level (i.e., cell isolation passage number 2). The cells were grown as a monolayer until they reached about 75% of confluence before being used in the experiment. Reference product: FK228 at 100 ng/ml was used as a reference inducer of telomerase 1 activity. Incubation protocol: […] At the end of the incubation period, the telomerase was extracted from the cells and its activity was determined by means of a specific, sensitive kit. The principle of the telomerase kit is to measure the telomerase activity by coupling a PCR step (in which telomerase functions as regards its elongation activity) with an ELISA step for semi-quantitative determination of amounts of telomerase elongation product. The results are expressed in arbitrary units for the telomerase activity level (mean±S.D). The significance level between the “vehicle” and the “reference product” was evaluated by means of a Student's t test (*: p<0.05). The significance level between “control” and “test compound” was evaluated independently for each product by a one-way analysis of variance (one-way ANOVA) followed by a Holm-Sidak test (*: p<0.05).

phospholipase A2 = target: T1, phospholipase A2 (Homo sapiens, UniProt P39877); experiment: sPLA2 (type V) Inhibitor Screening Assay Kit; format: biochemical; settings: 1 mg in 100 μl
T1 construct: purchased
T1 sequence (P39877 21-138): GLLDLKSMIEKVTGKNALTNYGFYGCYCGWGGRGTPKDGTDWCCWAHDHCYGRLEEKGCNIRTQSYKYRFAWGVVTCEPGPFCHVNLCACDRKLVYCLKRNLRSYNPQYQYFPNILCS
Source text: The object of this study is to evaluate the modulation of the […] activity of the enzyme phospholipase A2 by one or more samples in an in vitro acellular model by means of the “SPLA2 (type V) Inhibitor Screening Assay Kit”. Phospholipase A2 is a key enzyme upstream of the inflammatory process which is triggered by the arachidonic cascade. A buffered solution of phospholipase A2 reacts with a specific substrate, diheptanoyl thio-PC, and transforms it into a compound which binds to a chromogen, DTNB, with agitation at room temperature. The phospholipase A2 activity may thus be evaluated by measuring the absorbance at 413 nm. […] The substrate transformed by the enzyme is stained by means of the chromogen DTNB by agitation at room temperature. […] The modulation of this activity is expressed as a percentage of inhibition or of activation of the phospholipase A2 activity in the absence of the active agent, i.e. only in the presence of the enzyme substrate (diheptanoyl thio-PC).
At the end of the incubation period, the activity of the enzyme phospholipase A2 with and without the test product or the reference product is evaluated by measuring the absorbance of the reaction media at 413 nm. For each concentration tested, the modulation of the phospholipase A2 enzymatic activity with the test product is calculated according to the following formula. […]

SMILES | increase of telomerase activity (telomerase) | inhibition of PLA2 activity (phospholipase A2)
C/C=C1\NC(=O)[C@H]2CSSCC/C=C/[C@H](CC(=O)N[C@H](C(C)C)C(=O)N2)OC(=O)[C@H](C(C)C)NC1=O [FK228] | 28.0% | –
CCCCCCCCCCCCCCCCSC[C@H](COP(=O)(O)OCC[N+](C)(C)C)NC(=O)CCCCCCCCCCCCCCC [thioetheramide-PC] | – | 93%
